A short description of experiment [1]: Inhibition of HDAC by fluorescence assay.
Experiment [2] relates to DU-145. Description: Anticancer activity against human DU145 cells after 72 hrs by MTT assay. Type of experiment: functional. For orientation: Tetrazolium assays rely on reduction of a dye to a coloured formazan, in cell work by metabolically active cells.
In experiment [3] the test system is DU-145. As to the kind of experiment: Ratio of MS-275 GI to compound GI for human DU145 cells. Type of experiment: functional.
For another experiment, the system named is A2780. Description: Anticancer activity against human A2780 cells after 72 hrs by MTT assay. Type of experiment: functional.
The subject of another experiment is HCT-116. Description: Anticancer activity against human HCT116 cells after 72 hrs by MTT assay. Type of experiment: functional.
For the next experiment, the system named is MDA-MB-231. As to the kind of experiment: Anticancer activity against human MDA-MB-231 cells after 72 hrs by MTT assay. Type of experiment: functional.
Experiment [4] can be described thus: Ratio of MS-275 IC50 to compound IC50 to for HDAC.

For orientation: IC50 means the concentration that inhibits the measured activity by half. Read a high IC50 as lower potency. `Nc1ccccc1NC(=O)c1ccc(C(=O)CNC(=O)c2ccccn2)cc1` showed an IC50 in experiment [1] of 30.2 µM.

Take `Nc1cc(C(=O)NCC(=O)c2ccc(C(=O)Nc3ccccc3N)cc2)ccn1`: the IC50 in experiment [1] was determined as 42.6 µM.

In experiment [1], `Nc1ccc(S(=O)(=O)NCC(=O)c2ccc(C(=O)Nc3ccccc3N)cc2)cc1` came in with an IC50 of 3.8 µM. Besides, the GI in the experiment on DU-145 [2] stood at 0.16 µM; with A2780 it was 5.7 µM. Further, the Ratio in the experiment with DU-145 [3] came out at 50.

For the compound `Nc1cccc(C(=O)NCC(=O)c2ccc(C(=O)Nc3ccccc3N)cc2)c1`, in experiment [1], inhibition was half-maximal at 70.7 µM (IC50).

`Nc1ccccc1NC(=O)c1ccc(C(=O)CNC(=O)c2ccccc2)cc1` displayed an IC50 in experiment [1] above 100 µM.

Regarding `Cc1ccc(S(=O)(=O)NCC(=O)c2ccc(C(=O)Nc3ccccc3N)cc2)cc1`, in experiment [1], the IC50 came to 22.4 µM. Also, the GI with HCT-116 was 18.7 µM; with DU-145 [2] it was 37.7 µM; in the experiment with MDA-MB-231, 18.4 µM; in the experiment with A2780, above 100 µM. In experiment [4], the Ratio IC50 is 4.

In experiment [1], `Nc1ccc(C(=O)NCC(=O)c2ccc(C(=O)Nc3ccccc3N)cc2)cc1` yielded an IC50 of 50.2 µM.

`Nc1ccccc1NC(=O)c1ccc(CNC(=O)OCc2cccnc2)cc1` [ENTINOSTAT] gave an IC50 in experiment [1] of 13 µM. Besides, the GI was found to be 3.1 µM with HCT-116, 7.9 µM in the experiment with DU-145 [2], 2.8 µM with MDA-MB-231 and 5.7 µM with A2780.

In experiment [1], `Nc1ccccc1NC(=O)c1ccc(C(=O)CNS(=O)(=O)c2cccnc2Cl)cc1` registered an IC50 of 11.1 µM.

The values above are taken from ChEMBL document CHEMBL1806487, “Design, synthesis and docking studies on benzamide derivatives as histone deacetylase inhibitors” (Bioorg Med Chem Lett, 2011).
